Test results reported in PubChem BioAssay (NCI).
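Grown in 96-well plates, cells were treated for 48 hours with each compound at five concentrations. Insufficient inhibition: endpoint recorded as highest concentration tested. GI50 = concentration required for 50% inhibition of growth. Definition used: TGI = concentration required for complete inhibition of growth.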

Tests used:
Experiment in all cases: inhibition of tumour cell growth, NCI panel, 48 h
SW-620 colon = test system: SW-620 colon
MALME-3M melanoma = test system: MALME-3M melanoma
HT29 colon = test system: HT29 colon
HCC-2998 colon = test system: HCC-2998 colon
SF-268 CNS = test system: SF-268 CNS
BT-549 breast = test system: BT-549 breast
IGROV1 ovarian = test system: IGROV1 ovarian
HOP-62 NSCLC = test system: HOP-62 NSCLC
RXF 393 renal = test system: RXF 393 renal
OVCAR-5 ovarian = test system: OVCAR-5 ovarian
MOLT-4 leukemia = test system: MOLT-4 leukemia
OVCAR-8 ovarian = test system: OVCAR-8 ovarian
PC-3 prostate = test system: PC-3 prostate
HCT-116 colon = test system: HCT-116 colon
MCF7 breast = test system: MCF7 breast
A549 NSCLC = test system: A549 NSCLC
SNB-19 CNS = test system: SNB-19 CNS
KM12 colon = test system: KM12 colon
RPMI-8226 leukemia = test system: RPMI-8226 leukemia
HL-60(TB) leukemia = test system: HL-60(TB) leukemia
HOP-92 NSCLC = test system: HOP-92 NSCLC
SK-OV-3 ovarian = test system: SK-OV-3 ovarian
UO-31 renal = test system: UO-31 renal
K-562 leukemia = test system: K-562 leukemia
U251 CNS = test system: U251 CNS
LOX IMVI melanoma = test system: LOX IMVI melanoma
NCI-H23 lung = test system: NCI-H23 lung
786-0 renal = test system: 786-0 renal
M14 melanoma = test system: M14 melanoma
A498 renal = test system: A498 renal
NCI-H522 lung = test system: NCI-H522 lung
CCRF-CEM leukemia = test system: CCRF-CEM leukemia
MDA-MB-231 breast = test system: MDA-MB-231 breast
OVCAR-3 ovarian = test system: OVCAR-3 ovarian
SN12C renal = test system: SN12C renal
NCI-H226 lung = test system: NCI-H226 lung
MDA-MB-435 = test system: MDA-MB-435
HS 578T breast = test system: HS 578T breast
SR leukemia = test system: SR leukemia
OVCAR-4 ovarian = test system: OVCAR-4 ovarian
UACC-257 melanoma = test system: UACC-257 melanoma
SK-MEL-5 melanoma = test system: SK-MEL-5 melanoma
NCI/ADR-RES ovarian = test system: NCI/ADR-RES ovarian
SK-MEL-28 melanoma = test system: SK-MEL-28 melanoma
COLO 205 colon = test system: COLO 205 colon
SK-MEL-2 melanoma = test system: SK-MEL-2 melanoma
UACC-62 melanoma = test system: UACC-62 melanoma
SF-295 CNS = test system: SF-295 CNS
SNB-75 CNS = test system: SNB-75 CNS
CAKI-1 renal = test system: CAKI-1 renal
TK-10 renal = test system: TK-10 renal
ACHN renal = test system: ACHN renal
NCI-H460 lung = test system: NCI-H460 lung
HCT-15 colon = test system: HCT-15 colon
SF-539 CNS = test system: SF-539 CNS
T-47D breast = test system: T-47D breast

O=C1/C(=C/c2ccc([N+](=O)[O-])s2)Oc2ccc(Cl)cc21
GI50 (SW-620 colon): 206 nM
TGI (SW-620 colon): 490 nM
GI50 (MALME-3M melanoma): 526 nM
TGI (MALME-3M melanoma): 1380 nM
GI50 (HT29 colon): 2210 nM
TGI (HT29 colon): 5490 nM
GI50 (HCC-2998 colon): 515 nM
TGI (HCC-2998 colon): 1330 nM
GI50 (SF-268 CNS): 405 nM
TGI (SF-268 CNS): 1530 nM
GI50 (BT-549 breast): 248 nM
TGI (BT-549 breast): 682 nM
GI50 (IGROV1 ovarian): 311 nM
TGI (IGROV1 ovarian): 983 nM
GI50 (HOP-62 NSCLC): 775 nM
TGI (HOP-62 NSCLC): 3000 nM
GI50 (RXF 393 renal): 375 nM
TGI (RXF 393 renal): 1110 nM
GI50 (OVCAR-5 ovarian): 1530 nM
TGI (OVCAR-5 ovarian): 3010 nM
GI50 (MOLT-4 leukemia): 371 nM
TGI (MOLT-4 leukemia): 2470 nM
GI50 (OVCAR-8 ovarian): 330 nM
TGI (OVCAR-8 ovarian): 4910 nM
GI50 (PC-3 prostate): 216 nM
TGI (PC-3 prostate): 593 nM
GI50 (HCT-116 colon): 222 nM
TGI (HCT-116 colon): 535 nM
GI50 (MCF7 breast): 305 nM
TGI (MCF7 breast): 1430 nM
GI50 (A549 NSCLC): 533 nM
TGI (A549 NSCLC): 2450 nM
GI50 (SNB-19 CNS): 512 nM
TGI (SNB-19 CNS): 1550 nM
GI50 (KM12 colon): 240 nM
TGI (KM12 colon): 593 nM
GI50 (RPMI-8226 leukemia): 298 nM
TGI (RPMI-8226 leukemia): 970 nM
GI50 (HL-60(TB) leukemia): 423 nM
TGI (HL-60(TB) leukemia): 2150 nM
GI50 (HOP-92 NSCLC): 176 nM
TGI (HOP-92 NSCLC): 519 nM
GI50 (SK-OV-3 ovarian): 2100 nM
TGI (SK-OV-3 ovarian): 4420 nM
GI50 (UO-31 renal): 152 nM
TGI (UO-31 renal): 295 nM
GI50 (K-562 leukemia): 133 nM
TGI (K-562 leukemia): 909 nM
GI50 (U251 CNS): 263 nM
TGI (U251 CNS): 694 nM
GI50 (LOX IMVI melanoma): 239 nM
TGI (LOX IMVI melanoma): 598 nM
GI50 (NCI-H23 lung): 592 nM
TGI (NCI-H23 lung): 1820 nM
GI50 (786-0 renal): 887 nM
TGI (786-0 renal): 3210 nM
GI50 (M14 melanoma): 512 nM
TGI (M14 melanoma): 1520 nM
GI50 (A498 renal): 1740 nM
TGI (A498 renal): 4910 nM
GI50 (NCI-H522 lung): 198 nM
TGI (NCI-H522 lung): 435 nM
GI50 (CCRF-CEM leukemia): 273 nM
TGI (CCRF-CEM leukemia): 720 nM
GI50 (MDA-MB-231 breast): 231 nM
TGI (MDA-MB-231 breast): 586 nM
GI50 (OVCAR-3 ovarian): 229 nM
TGI (OVCAR-3 ovarian): 480 nM
GI50 (SN12C renal): 593 nM
TGI (SN12C renal): 1790 nM
GI50 (NCI-H226 lung): 1390 nM
TGI (NCI-H226 lung): 3930 nM
GI50 (MDA-MB-435): 457 nM
TGI (MDA-MB-435): 1550 nM
GI50 (HS 578T breast): 372 nM
TGI (HS 578T breast): > 100000 nM
GI50 (SR leukemia): 204 nM
TGI (SR leukemia): 730 nM
GI50 (OVCAR-4 ovarian): 406 nM
TGI (OVCAR-4 ovarian): 897 nM
GI50 (UACC-257 melanoma): 630 nM
TGI (UACC-257 melanoma): 2250 nM
GI50 (SK-MEL-5 melanoma): 343 nM
TGI (SK-MEL-5 melanoma): 860 nM
GI50 (NCI/ADR-RES ovarian): 738 nM
TGI (NCI/ADR-RES ovarian): 2890 nM
GI50 (SK-MEL-28 melanoma): 336 nM
TGI (SK-MEL-28 melanoma): 881 nM
GI50 (COLO 205 colon): 527 nM
TGI (COLO 205 colon): 1360 nM
GI50 (SK-MEL-2 melanoma): 260 nM
TGI (SK-MEL-2 melanoma): 624 nM
GI50 (UACC-62 melanoma): 271 nM
TGI (UACC-62 melanoma): 771 nM
GI50 (SF-295 CNS): 999 nM
TGI (SF-295 CNS): 2980 nM
GI50 (SNB-75 CNS): 486 nM
TGI (SNB-75 CNS): 1740 nM
GI50 (CAKI-1 renal): 2050 nM
TGI (CAKI-1 renal): 6680 nM
GI50 (TK-10 renal): 372 nM
TGI (TK-10 renal): 26900 nM
GI50 (ACHN renal): 234 nM
TGI (ACHN renal): 595 nM
GI50 (NCI-H460 lung): 675 nM
TGI (NCI-H460 lung): 2180 nM
GI50 (HCT-15 colon): 192 nM
TGI (HCT-15 colon): 550 nM
GI50 (SF-539 CNS): 219 nM
TGI (SF-539 CNS): 583 nM
GI50 (T-47D breast): 309 nM
TGI (T-47D breast): 1640 nM
